Assays:
barnyardgrass = assay: Test A preemergence; assay type: in vivo, Echinochloa crus-galli
In short: (§1)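 Greenhouse pot test, loam/sand soil. Formulation: non-phytotoxic solvent mix plus surfactant. Pre: directed spray onto soil after sowing. Post: plants at 1–2 leaf, 2–10 cm. Rated visually vs untreated controls at ~10 d, 0 (no effect) to 100 (complete control).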

giant foxtail = assay: Test A postemergence; assay type: in vivo, Setaria faberii
In short: as §1

corn [1] = assay: Test A postemergence; assay type: in vivo, Zea mays
In short: as §1

Heteranthera limosa = assay: Test B flooded paddy test; assay type: in vivo; conditions: Flood, 250 g ai/ha, 0 to 100 scale where 0 is no effect and 100 is complete control
In short: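 2-leaf stage plants; pots flooded to 3 cm, compound added to paddy water, depth maintained. Greenhouse 13–15 d. Visual rating vs untreated controls, 0 (no effect) to 100 (complete control); dash = no result.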

corn [2] = assay: Test C postemergence; assay type: in vivo, Zea mays
Excerpt: (§2) Seeds of plant species selected from blackgrass (Alopecurus myosuroides), Italian ryegrass (Lolium multiflorum), wheat, winter (winter wheat, Triticum aestivum), galium (catchweed bedstraw, Galium aparine), corn (Zea mays), large (Lg) crabgrass (Digitaria sanguinalis), giant foxtail (Setaria faberii), johnsongrass (Sorghum halepense), lambsquarters (Chenopodium album), morningglory (Ipomoea coccinea), yellow nutsedge (Cyperus esculentus), pigweed (Amaranthus retroflexus), ragweed (common ragweed, Ambrosia elatior), soybean (Glycine max), barnyardgrass (Echinochloa crus-galli), oilseed rape (Brassica napus), waterhemp (common waterhemp, Amaranthus rudis), kochia (Kochia scoparia), wild oat (Avena fatua), surinam grass (Brachiaria decumbens), foxtail, green (green foxtail, Setaria viridis), goosegrass (Eleusine indica), bromegrass, downy (downy bromegrass, Bromus tectorum), nightshade (eastern black nightshade, Solanum ptycanthum), cocklebur (common cocklebur, Xanthium strumarium), cupgrass, woolly (woolly cupgrass, Eriochloa villosa), bermudagrass (Cynodon dactylon), sunflower, (common oilseed sunflower, Helianthus annuus), Russian thistle (Salsola kali), and velvetleaf (Abutilon theophrasti) were planted into a blend of loam soil and sand and treated preemergence with test chemicals formulated in a non-phytotoxic solvent mixture which included a surfactant.
(§3) At the same time, plants selected from these crop and weed species and also barley, winter (winter barley, Hordeum vulgare), windgrass (Apera spica-venti), chickweed (common chickweed, Stellaria media), deadnettle (henbit deadnettle, Lamium amplexicaule), and canarygrass (littleseed canarygrass, Phalaris minor) were planted in pots containing Redi-Earth® planting medium (Scotts Company, 14111 Scottslawn Road, Marysville, Ohio 43041) comprising spaghnum peat moss, vermiculite, wetting agent and starter nutrients and treated with postemergence applications of test chemicals formulated in the same manner. Plants ranged in height from 2 to 18 cm (1- to 4-leaf stage) for postemergence treatments. Treated plants and controls were maintained in a greenhouse for 13 to 15 days, after which time all species were compared to controls and visually evaluated. Plant response ratings, summarized in Table C, are based on a scale of 0 to 100 where 0 is no effect and 100 is complete control. A dash (-) response means no test result.

morningglory [3] = assay: Test C postemergence; assay type: in vivo, Ipomoea coccinea
Excerpt: as §2, §3

pigweed = assay: Test C postemergence; assay type: in vivo, Amaranthus retroflexus
Excerpt: as §2, §3

kochia = assay: Test C postemergence; assay type: in vivo, Kochia scoparia
Excerpt: as §2, §3

wild oat = assay: Test C postemergence; assay type: in vivo, Avena fatua
Excerpt: as §2, §3

large (Lg) crabgrass = assay: Test A preemergence; assay type: in vivo, Digitaria sanguinalis
In short: as §1

wheat = assay: Test A preemergence; assay type: in vivo, Triticum aestivum
In short: as §1

morningglory [4] = assay: Test A postemergence; assay type: in vivo, Ipomoea spp.
In short: as §1

Italian ryegrass = assay: Test C preemergence; assay type: in vivo, Lolium multiflorum; conditions: Lolium multiflorum, pre-emergence
Excerpt: as §2, §3

ragweed = assay: Test C preemergence; assay type: in vivo, Ambrosia elatior; conditions: Ambrosia artemisiifolia, pre-emergence
Excerpt: as §2, §3

[5] = 1000 g ai/ha, 0 to 100 scale, 0 no effect, 100 complete control
[6] = 16 g ai/ha, postemergence, 0 is no effect, 100 is complete control
[7] = 31 g ai/ha, postemergence, visual rating, scale 0 to 100 (0 no effect, 100 complete control), 13 to 15 days
[8] = 125 g ai/ha, postemergence, visual rating, scale 0 to 100 (0 no effect, 100 complete control)
[9] = Postemergence, 62 g ai/ha, scale 0 to 100 (0 no effect, 100 complete control)
[10] = 125 g ai/ha, 0 to 100 scale where 0 is no effect and 100 is complete control
[11] = 500 g ai/ha, 0 to 100 scale, 0 no effect, 100 complete control, approx. 10 days
[12] = 500 g ai/ha, 0 to 100 scale, 0 no effect, 100 complete control

Fc1cccc(Oc2ncc(Cl)cn2)c1-n1cc(C2CC2)nn1 [Compound 155]
Barnyardgrass plant response rating (barnyardgrass; 1000 g ai/ha, 0 to 100 scale, 0 no effect, 100 complete control, approx. 10 days): 100 | Plant response rating, Foxtail, Giant (giant foxtail; [5]): 100 | Plant response rating, Corn (corn [1]; [5]): 100 | Plant response rating, Ducksalad (Heteranthera limosa): 100 | Plant response rating (0 to 100), Corn (corn [2]; [6]): 5 | Corn plant response rating (corn [2]; [7]): 5 | Plant response rating, Corn (corn [2]; [8]): 10 | Plant response rating, Corn (corn [2]; [9]): 5 | Plant response rating (0 to 100), Morningglory (morningglory [3]; [6]): 70 | Morningglory plant response rating (morningglory [3]; [7]): 80 | Plant response rating, Morningglory (morningglory [3]; [8]): 85 | Plant response rating, Morningglory (morningglory [3]; [9]): 80 | Plant response rating (0 to 100), Pigweed (pigweed; [6]): 80 | Pigweed plant response rating (pigweed; [7]): 75 | Plant response rating, Pigweed (pigweed; [8]): 98 | Plant response rating, Pigweed (pigweed; [9]): 98 | Plant response rating (0 to 100), Kochia (kochia; [6]): 80 | Kochia plant response rating (kochia; [7]): 98 | Plant response rating, Kochia (kochia; [8]): 100 | Plant response rating, Kochia (kochia; [9]): 98 | Plant response rating (0 to 100), Oat, Wild (wild oat; [6]): 0 | Oat, Wild plant response rating (wild oat; [7]): 0 | Plant response rating, Oat, Wild (wild oat; [8]): 25 | Plant response rating, Oat, Wild (wild oat; [9]): 5

FC(F)(F)c1cnn(-c2ccccc2Oc2ncc(Br)cn2)c1 [Compound 18, 5-bromo-2-[2-[4-(trifluoromethyl)-1H-pyrazol-1-yl]phenoxy]pyrimidine]
pest or weed control at 125 g/ha (barnyardgrass; Echinochloa crus-galli, pre-emergence, 240 h, 125 g ai/ha, 0 to 100 scale where 0 is no effect and 100 is complete control, read-out: Plant response rating, Barnyardgrass): 90% | pest or weed control at 500 g/ha (barnyardgrass; Echinochloa crus-galli, pre-emergence, 240 h, 500 g ai/ha, 0 to 100 scale, 0 no effect, 100 complete control, approx. 10 days, read-out: Barnyardgrass plant response rating): 100% | pest or weed control at 125 g/ha (large (Lg) crabgrass; Digitaria sanguinalis, pre-emergence, 240 h, 125 g ai/ha, 0 to 100 scale where 0 is no effect and 100 is complete control, read-out: Plant response rating, Crabgrass, Large): 100% | pest or weed control at 500 g/ha (large (Lg) crabgrass; Digitaria sanguinalis, pre-emergence, 240 h, 500 g ai/ha, 0 to 100 scale, 0 no effect, 100 complete control, approx. 10 days, read-out: Crabgrass, Large plant response rating): 100% | Plant response rating, Wheat (wheat; [10]): 0 | plant injury at 500 g/ha (wheat; Triticum aestivum, pre-emergence, 240 h, 500 g ai/ha, 0 to 100 scale, 0 no effect, 100 complete control, approx. 10 days, read-out: Wheat plant response rating): 70% | pest or weed control at 125 g/ha (giant foxtail; Setaria faberi, post-emergence, 240 h, 125 g ai/ha, 0 to 100 scale where 0 is no effect and 100 is complete control, read-out: Plant response rating, Foxtail, Giant): 80% | pest or weed control at 500 g/ha (giant foxtail; Setaria faberi, post-emergence, 240 h, 500 g ai/ha, 0 to 100 scale, 0 no effect, 100 complete control, read-out: Plant response rating Foxtail, Giant): 100% | pest or weed control at 125 g/ha (morningglory [4]; Ipomoea, post-emergence, 240 h, 125 g ai/ha, 0 to 100 scale where 0 is no effect and 100 is complete control, read-out: Plant response rating, Morningglory): 60% | pest or weed control at 500 g/ha (morningglory [4]; Ipomoea, post-emergence, 240 h, 500 g ai/ha, 0 to 100 scale, 0 no effect, 100 complete control, read-out: Plant response rating Morningglory): 100% | Corn plant response rating (crop injury, 0 = no effect, 100 = complete kill) at 125 g/ha (corn [1]; Zea mays, post-emergence, 240 h, 125 g ai/ha, 0 to 100 scale where 0 is no effect and 100 is complete control): 30% | plant injury at 500 g/ha (corn [1]; Zea mays, post-emergence, 240 h, 500 g ai/ha, 0 to 100 scale, 0 no effect, 100 complete control, read-out: Plant response rating Corn): 90% | pest or weed control at 250 g/ha (Heteranthera limosa; Heteranthera limosa, read-out: Plant response rating, Ducksalad): 90% | pest or weed control at 62 g/ha (Italian ryegrass; 62 g ai/ha, preemergence, scale 0 (no effect) to 100 (complete control), read-out: Ryegrass, Italian plant response rating): 5% | pest or weed control at 125 g/ha (Italian ryegrass; 125 g ai/ha, preemergence, scale 0 (no effect) to 100 (complete control), read-out: Ryegrass, Italian plant response rating): 45% | pest or weed control at 250 g/ha (Italian ryegrass; 250 g ai/ha, preemergence, scale 0 (no effect) to 100 (complete control), read-out: Ryegrass, Italian plant response rating): 85% | pest or weed control at 31 g/ha (Italian ryegrass; Preemergence, 31 g ai/ha, scale 0 to 100, 0 no effect, 100 complete control, read-out: Plant response rating, Ryegrass, Italian): 0% | pest or weed control at 62 g/ha (ragweed; 62 g ai/ha, preemergence, scale 0 (no effect) to 100 (complete control), read-out: Ragweed plant response rating): 0% | pest or weed control at 125 g/ha (ragweed; 125 g ai/ha, preemergence, scale 0 (no effect) to 100 (complete control), read-out: Ragweed plant response rating): 10% | pest or weed control at 250 g/ha (ragweed; 250 g ai/ha, preemergence, scale 0 (no effect) to 100 (complete control), read-out: Ragweed plant response rating): 30% | pest or weed control at 31 g/ha (ragweed; Preemergence, 31 g ai/ha, scale 0 to 100, 0 no effect, 100 complete control, read-out: Plant response rating, Ragweed): 0%

Clc1cnc(Oc2ccccc2-n2cc(Cl)cn2)nc1 [Compound 3]
Barnyardgrass plant response rating (barnyardgrass; [10]): 60 | Barnyardgrass plant response rating (barnyardgrass; [11]): 100 | Crabgrass, Large plant response rating (large (Lg) crabgrass; [10]): 90 | Crabgrass, Large plant response rating (large (Lg) crabgrass; [11]): 100 | Wheat plant response rating (wheat; [10]): 0 | Wheat plant response rating (wheat; [11]): 10 | Plant response rating, Foxtail, Giant (giant foxtail; [10]): 30 | Plant response rating, Foxtail, Giant (giant foxtail; [12]): 90 | Plant response rating, Morningglory (morningglory [4]; [10]): 10 | Plant response rating, Morningglory (morningglory [4]; [12]): 70 | Plant response rating, Corn (corn [1]; [10]): 0 | Plant response rating, Corn (corn [1]; [12]): 40 | Plant response rating, Ducksalad (Heteranthera limosa): 90

From patent US9695155B2, “Herbicidal substituted pyrimidinyloxy benzene compounds” (E. I. DU PONT DE NEMOURS AND COMPANY, priority 2013, dated 2017)
